In paper PMC6934184, “Selective DNA-PKcs inhibition extends the therapeutic index of localized radiotherapy and chemotherapy” (The Journal of Clinical Investigation, 2019):

Biological target: T1, LCK (Homo sapiens, UniProt P06239)
T1 construct: purchased Thermo Fisher Scientific (Life Technologies) SelectScreen
Experiment: SelectScreen Z'LYTE
Format: biochemical
In short: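 SelectScreen broad panel; activity (Z'LYTE, Adapta) plus binding formats. ATP: Km app for CSF1R Z'LYTE; 10 for CAMK1 Adapta. Readout = % per kinase.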

T1 sequence (P06239 whole entry): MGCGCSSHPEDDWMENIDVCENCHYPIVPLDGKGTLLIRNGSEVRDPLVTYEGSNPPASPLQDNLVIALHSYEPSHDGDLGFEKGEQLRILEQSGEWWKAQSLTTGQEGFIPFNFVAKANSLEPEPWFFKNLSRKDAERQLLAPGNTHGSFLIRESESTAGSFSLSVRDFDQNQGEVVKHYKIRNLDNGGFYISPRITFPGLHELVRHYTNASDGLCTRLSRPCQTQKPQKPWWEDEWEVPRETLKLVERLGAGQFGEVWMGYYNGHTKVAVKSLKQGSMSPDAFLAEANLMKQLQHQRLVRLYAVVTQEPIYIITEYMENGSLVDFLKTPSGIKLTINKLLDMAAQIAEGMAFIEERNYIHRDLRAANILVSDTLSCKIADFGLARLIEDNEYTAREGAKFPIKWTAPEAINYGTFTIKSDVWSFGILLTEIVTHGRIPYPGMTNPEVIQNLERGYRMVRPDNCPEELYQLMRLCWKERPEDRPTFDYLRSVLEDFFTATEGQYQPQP

## CN(C(=O)CN1CCOCC1)c1ccc2sc3c(-c4cccc5c(=O)cc(N6CC7CCC(C6)O7)oc45)cccc3c2c1 [NU5455]
  inhibition at 1 µM: 9.6%
